Entries after “also recorded” stand apart in the source; their conditions may differ. Like-named read-outs stand apart in the source and are kept apart here.
Columns and labels:
[1] = tested on: MCF-7 and MDA-MBA-231 cells; assay: Cytotoxic screening on the two cell lines, selectivity MCF-7 versus MDA-MBA-231; type: cell-based; settings: for Selectivity Indices S1: S1 = IC50 (MCF-7)/IC50 (MDA-MBA-231); for Cell Line (type of selectivity): S1 > S2: more selective to MDA-MBA-231, S2 > S1: more selective to MCF-7; for Selectivity Indices S2: S2 = IC50 (MDA-MBA-231)/IC50 (MCF-7)
Procedure: (§1) Cells were cultured using reported culture media, incubated for 24 h, treated with different concentrations of tested derivatives and incubated for 48 h. MTT was added to extract the color, which was then measured by ELISA [12].

[2] = tested on: MDA-MBA-231; assay: In vitro cytotoxic screening (MTT assay), MDA-MBA-231; type: cell-based; settings: read-out: IC50 (µM) MDA-MBA-231
Procedure: as §1

[3] = tested on: MCF-7; assay: In vitro cytotoxic screening (MTT assay), MCF-7; type: cell-based; settings: Homo sapiens, read-out: IC50 (µM) MCF-7
Procedure: as §1

[4] = target: T1, porcine tubulin protein (Sus scrofa, UniProt P02550+P02554); assay: Tubulin polymerization inhibition assay (CytoDYNAMIX Screen kit); type: biochemical; settings: absorbance 340 nm, 30 min, 37 °C
T1 construct: purchased Cytoskeleton Inc. BK006P
T1 sequence (P02550 whole entry): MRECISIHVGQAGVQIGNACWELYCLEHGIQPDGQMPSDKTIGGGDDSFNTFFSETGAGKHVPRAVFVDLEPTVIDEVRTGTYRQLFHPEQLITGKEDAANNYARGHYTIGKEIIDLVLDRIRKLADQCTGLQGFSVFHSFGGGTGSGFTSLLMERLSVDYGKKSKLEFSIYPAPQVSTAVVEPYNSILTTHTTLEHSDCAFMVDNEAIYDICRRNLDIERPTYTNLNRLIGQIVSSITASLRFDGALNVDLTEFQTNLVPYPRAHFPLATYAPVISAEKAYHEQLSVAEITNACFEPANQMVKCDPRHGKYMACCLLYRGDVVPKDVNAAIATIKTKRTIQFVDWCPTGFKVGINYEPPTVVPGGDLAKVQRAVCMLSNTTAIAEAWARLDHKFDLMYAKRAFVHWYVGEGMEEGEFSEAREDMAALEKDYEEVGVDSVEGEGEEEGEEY
T1 sequence (P02554 whole entry): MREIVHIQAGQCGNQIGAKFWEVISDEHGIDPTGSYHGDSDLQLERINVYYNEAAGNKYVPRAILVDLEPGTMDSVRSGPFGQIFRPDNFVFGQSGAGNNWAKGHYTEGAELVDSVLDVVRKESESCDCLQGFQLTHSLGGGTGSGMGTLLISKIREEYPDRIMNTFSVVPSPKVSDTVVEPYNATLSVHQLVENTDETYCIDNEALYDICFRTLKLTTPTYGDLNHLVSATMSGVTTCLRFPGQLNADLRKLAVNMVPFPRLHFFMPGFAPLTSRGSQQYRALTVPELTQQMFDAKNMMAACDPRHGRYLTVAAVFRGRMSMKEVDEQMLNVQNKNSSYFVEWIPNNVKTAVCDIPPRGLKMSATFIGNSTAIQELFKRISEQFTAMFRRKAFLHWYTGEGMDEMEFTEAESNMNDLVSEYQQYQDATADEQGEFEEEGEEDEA
Procedure: Cold porcine tubulin protein (>99% purity) was added to a G-PEM buffer (80 mM PIPES, 2 mM MgCl2, 0.5 mM EGTA, 1 mM GTP, pH 6.9) containing 15% glycerol with or without the identified compounds. […] The absorbance was monitored every minute for 30 min at 340 nm [16, 23].

[5] = target: EGFR kinase (Homo sapiens, UniProt P00533); assay: EGFR inhibition assay (HTScan EGFR kinase assay kit)
Sequence of EGFR kinase (P00533 672-1210 limits assumed): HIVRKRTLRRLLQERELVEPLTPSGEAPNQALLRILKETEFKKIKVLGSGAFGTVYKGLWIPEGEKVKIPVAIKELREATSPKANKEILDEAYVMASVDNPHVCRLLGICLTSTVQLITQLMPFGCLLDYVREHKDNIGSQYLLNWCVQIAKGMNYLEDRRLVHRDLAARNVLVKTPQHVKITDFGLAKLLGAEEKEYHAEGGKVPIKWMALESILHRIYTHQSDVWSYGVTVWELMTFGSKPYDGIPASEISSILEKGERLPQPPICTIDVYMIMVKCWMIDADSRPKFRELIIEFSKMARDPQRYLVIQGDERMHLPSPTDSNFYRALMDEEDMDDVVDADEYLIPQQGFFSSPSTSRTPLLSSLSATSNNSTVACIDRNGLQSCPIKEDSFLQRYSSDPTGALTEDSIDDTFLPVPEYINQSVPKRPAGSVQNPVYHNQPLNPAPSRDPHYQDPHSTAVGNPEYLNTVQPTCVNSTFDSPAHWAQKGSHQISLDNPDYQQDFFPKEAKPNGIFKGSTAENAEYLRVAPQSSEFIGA
Source text: High tech HTScan EGFR kinase assay kits (Cell Signaling Technology, Danvers, MA, USA) were used to measure EGFR kinase activity. The assay was achieved following the manufacturers’ instructions and reported procedures [16, 23].

[6] = MTT assay, 48 h incubation, mean ± SD
[7] = MCF7, MTT assay, 48 h incubation, mean ± SD

Structure (SMILES)	melting point [°C]	IC50 [4] [µM]	IC50 [5] [µM]	Selectivity Indices S1 [1]	Cell Line (type of selectivity) [1]	Selectivity Indices S2 [1]	IC50 [2, 6] [µM]	IC50 [3, 7] [µM]	IC50 ([2]; 48 h) [µM]	IC50 ([3]; MCF7, 48 h) [µM]
NCC(=O)Nn1c(-c2ccc(F)cc2)nc2ccc(F)cc2c1=O [A, 2-amino-N-(6-fluoro-2-(4-fluorophenyl)-4-oxoquinazolin-3(4H)-yl)acetamide]	236 to 238			1.53 ± 0.12	more selective to MDA-MBA-231 than MCF-7; also recorded: MDA-MBA-231 selective	0.65 ± 0.05	16.3 ± 1.21	25 ± 1.61		
C[C@H](N)C(=O)Nn1c(-c2ccc(F)cc2)nc2ccc(F)cc2c1=O [Compound B, (S)-2-amino-N-(6-fluoro-2-(4-fluorophenyl)-4-oxoquinazolin-3(4H)-yl)propanamide]	238 to 240			1.59 ± 0.05	more selective to MDA-MBA-231 than MCF-7; also recorded: MDA-MBA-231 selective	0.63 ± 0.23	42.9 ± 2.64	68.5 ± 3.27		
CCC(C)[C@H](N)C(=O)Nn1c(-c2ccc(F)cc2)nc2ccc(F)cc2c1=O (stereo partly drawn) [D, (2S)-2-amino-N-(6-fluoro-2-(4-fluorophenyl)-4-oxoquinazolin-3(4H)-yl)-3-methylpentanamide]	248 to 250			1.51 ± 0.24	more selective to MDA-MBA-231 than MCF-7; also recorded: MDA-MBA-231 selective	0.66 ± 0.17	7.49 ± 0.42	11.3 ± 1.25		
C#Cc1cccc(Nc2ncnc3cc(OCCOC)c(OCCOC)cc23)c1 [Erlotinib, erlotinib, reference compound]									2.55 ± 0.19	1.14
N[C@H](CS)C(=O)Nn1c(-c2ccc(F)cc2)nc2ccc(F)cc2c1=O [F, (S)-2-amino-N-(6-fluoro-2-(4-fluorophenyl)-4-oxoquinazolin-3(4H)-yl)-3-mercaptopropanamide]	220 to 222			0.15 ± 0.17	more selective to MCF-7 than MDA-MBA-231; also recorded: MCF-7 selective	6.46 ± 0.04	12.5 ± 5.88	1.93 ± 0.08		

Further lines, with some results ahead:

melting point [°C]	IC50 [4] [µM]	IC50 [5] [µM]	Structure (SMILES)	Selectivity Indices S1 [1]	Cell Line (type of selectivity) [1]	Selectivity Indices S2 [1]	IC50 [2, 6] [µM]	IC50 [3, 7] [µM]	IC50 ([2]; 48 h) [µM]	IC50 ([3]; MCF7, 48 h) [µM]
242 to 244			CC(C)[C@H](N)C(=O)Nn1c(-c2ccc(F)cc2)nc2ccc(F)cc2c1=O [C, (S)-2-amino-N-(6-fluoro-2-(4-fluorophenyl)-4-oxoquinazolin-3(4H)-yl)-3-methylbutanamide]	0.34 ± 0.18	more selective to MCF-7 than MDA-MBA-231; also recorded: MCF-7 selective	2.98 ± 0.71	3.45 ± 0.21	1.16 ± 0.05		
244 to 246	6.24	0.54538 ± 4e-05	N[C@@H](CCC(=O)O)C(=O)Nn1c(-c2ccc(F)cc2)nc2ccc(F)cc2c1=O [Compound E, (S)-4-(6-fluoro-2-(4-fluorophenyl)-4-oxoquinazolin-3(4H)-ylcarbamoyl)-4-aminobutanoic acid]	28.93 ± 0.08	more selective to MDA-MBA-231 than MCF-7; also recorded: MDA-MBA-231 selective	0.03 ± 0.11	0.43 ± 0.02	12.4 ± 5.73		
245 to 247		0.16397 ± 7e-05	N[C@@H](Cc1ccccc1)C(=O)Nn1c(-c2ccc(F)cc2)nc2ccc(F)cc2c1=O [Compound G, (S)-2-amino-N-(6-fluoro-2-(4-fluorophenyl)-4-oxoquinazolin-3(4H)-yl)-3-phenylpropanamide]	0.02 ± 0.07	more selective to MCF-7 than MDA-MBA-231; also recorded: MCF-7 selective	56.07 ± 0.15	24.7 ± 1.7	0.44 ± 0.01		
235 to 237			O=C(Nn1c(-c2ccc(F)cc2)nc2ccc(F)cc2c1=O)C1CCCN1 (centres unmarked) [H, N-(6-fluoro-2-(4-fluorophenyl)-4-oxoquinazolin-3(4H)-yl)pyrrolidine-2-carboxamide]	0.11 ± 0.23	more selective to MCF-7 than MDA-MBA-231; also recorded: MCF-7 selective	9.34 ± 0.02	12 ± 1.33	1.28 ± 0.03		
